Assay results published in patent publication US8183351B2, “Avermectin derivatives” (Bayer Cropscience AG, priority 2006, dated 2012).

Columns and labels:
Assay type in all cases: in vivo
Lucilia cuprina larvae = assay: Lucilia cuprina test (LUCICU); details: treated horsemeat
Protocol: Lucilia cuprina Test (LUCICU)
Description for Examples A and B
• Solvent: Dimethyl sulphoxide
To produce a suitable preparation of active compound, 1 part by weight of active compound is mixed with the stated amount of water and the concentrate is diluted with water to the desired concentration.
Containers containing horsemeat treated with the active compound preparation of the desired concentration are populated with Lucilia cuprina larvae.
After the desired period of time, the kill in % is determined. 100% means that all larvae have been killed; 0% means that none of the larvae have been killed.
In this test, for example, the following compounds of the preparation examples show good activity: see table

[1] = system: caterpillars of the army worm (Spodoptera frugiperda); assay: Spodoptera frugiperda test (SPODFR spray treatment); details: Example I; 4 ppm active compound; sprayed maize leaf discs
Protocol: Spodoptera frugiperda Test (SPODFR Spray Treatment)
• Solvents: 78.0 parts by weight of acetone • 1.5 parts by weight of dimethylformamide • Emulsifier: 0.5 part by weight of alkylaryl polyglyycol ether
After the desired period of time, the effect in % is determined. 100% means that all caterpillars have been killed; 0% means that none of the caterpillars have been killed.

[2] = system: larvae of the mustard beetle (Phaedon cochleariae); assay: Phaedon test (PHAECO spray treatment); details: Example G; 4 ppm active compound; sprayed Chinese cabbage discs
Protocol: Phaedon Test (PHAECO Spray Treatment)
• Solvents: 78 parts by weight of acetone • 1.5 parts by weight of dimethylformamide • Emulsifier: 0.5 part by weight of alkylaryl polyglyycol ether
After the desired period of time, the effect in % is determined. 100% means that all beetle larvae have been killed; 0% means that none of the beetle larvae have been killed.

[3] = Example A, 0.8 ppm active compound

CCC(C)C1OC2(C=CC1C)CC1CC(CC=C(C)C(OC3CC(OC)C(OC(=O)C(C)n4nc(OC)n(C)c4=O)C(C)O3)C(C)C=CC=C3COC4C(O)C(C)=CC(C(=O)O1)C34O)O2 (mixture of isomers) [Example 100]
Kill rate in % after 2 days (Lucilia cuprina larvae; [3]): 100%

CC[C@H](C)[C@H]1OC2(C=C[C@@H]1C)C[C@@H]1C[C@@H](C/C=C(\C)[C@@H](OC3CC(OC)C(OC(=O)CC(C)C)C(C)O3)[C@@H](C)/C=C/C=C3\CO[C@@H]4[C@H](O)C(C)=CC(C(=O)O1)[C@]34O)O2 (stereo partly drawn) [Example 4]
Kill rate in % after 2 days (Lucilia cuprina larvae; [3]): 100%

CC[C@H](C)[C@H]1OC2(C=C[C@@H]1C)C[C@@H]1C[C@@H](C/C=C(\C)[C@@H](OC3CC(OC)C(OC(=O)C(C)(C)C)C(C)O3)[C@@H](C)/C=C/C=C3\CO[C@@H]4[C@H](O)C(C)=CC(C(=O)O1)[C@]34O)O2 (stereo partly drawn) [Example 5]
Kill rate in % after 2 days (Lucilia cuprina larvae; [3]): 100%

CCC(=O)OC1C(C)OC(O[C@@H]2/C(C)=C/C[C@@H]3C[C@@H](CC4(C=C[C@H](C)[C@@H]([C@@H](C)CC)O4)O3)OC(=O)C3C=C(C)[C@@H](O)[C@H]4OC/C(=C\C=C\[C@@H]2C)[C@@]34O)CC1OC (stereo partly drawn) [Example 6]
Kill rate in % after 2 days (Lucilia cuprina larvae; [3]): 98%

CCC(C)C(=O)OC1C(C)OC(O[C@@H]2/C(C)=C/C[C@@H]3C[C@@H](CC4(C=C[C@H](C)[C@@H]([C@@H](C)CC)O4)O3)OC(=O)C3C=C(C)[C@@H](O)[C@H]4OC/C(=C\C=C\[C@@H]2C)[C@@]34O)CC1OC (stereo partly drawn) [Example 9]
Kill rate in % after 2 days (Lucilia cuprina larvae; [3]): 100%

CC[C@H](C)[C@H]1OC2(C=C[C@@H]1C)C[C@@H]1C[C@@H](C/C=C(\C)[C@@H](OC3CC(OC)C(OC(=O)Cc4ccsc4)C(C)O3)[C@@H](C)/C=C/C=C3\CO[C@@H]4[C@H](O)C(C)=CC(C(=O)O1)[C@]34O)O2 (stereo partly drawn) [Example 12]
Kill rate in % after 2 days (Lucilia cuprina larvae; [3]): 100%

CC[C@H](C)[C@H]1OC2(C=C[C@@H]1C)C[C@@H]1C[C@@H](C/C=C(\C)[C@@H](OC3CC(OC)C(OC(=O)C4(C)CC4)C(C)O3)[C@@H](C)/C=C/C=C3\CO[C@@H]4[C@H](O)C(C)=CC(C(=O)O1)[C@]34O)O2 (stereo partly drawn) [Example 15]
Kill rate in % after 2 days (Lucilia cuprina larvae; [3]): 100%

CC[C@H](C)[C@H]1OC2(C=C[C@@H]1C)C[C@@H]1C[C@@H](C/C=C(\C)[C@@H](OC3CC(OC)C(OC(=O)C4CCCC4)C(C)O3)[C@@H](C)/C=C/C=C3\CO[C@@H]4[C@H](O)C(C)=CC(C(=O)O1)[C@]34O)O2 (stereo partly drawn) [Example 16]
Kill rate in % after 2 days (Lucilia cuprina larvae; [3]): 100%

CC[C@H](C)[C@H]1OC2(C=C[C@@H]1C)C[C@@H]1C[C@@H](C/C=C(\C)[C@@H](OC3CC(OC)C(OC(=O)C(C)(C)n4nc(C)cc4C)C(C)O3)[C@@H](C)/C=C/C=C3\CO[C@@H]4[C@H](O)C(C)=CC(C(=O)O1)[C@]34O)O2 (stereo partly drawn) [Example 19]
Kill rate in % after 2 days (Lucilia cuprina larvae; Example B, 0.16 ppm active compound): 100%

CC[C@H](C)[C@H]1OC2(C=C[C@@H]1C)C[C@@H]1C[C@@H](C/C=C(\C)[C@@H](OC3CC(OC)C(OC(=O)Cc4nonc4C)C(C)O3)[C@@H](C)/C=C/C=C3\CO[C@@H]4[C@H](O)C(C)=CC(C(=O)O1)[C@]34O)O2 (stereo partly drawn) [Example 25]
Kill rate in % after 2 days (Lucilia cuprina larvae; [3]): 95%

CC[C@H](C)[C@H]1OC2(C=C[C@@H]1C)C[C@@H]1C[C@@H](C/C=C(\C)[C@@H](OC3CC(OC)C(OC(=O)Cc4c(C)nn(C)c4C)C(C)O3)[C@@H](C)/C=C/C=C3\CO[C@@H]4[C@H](O)C(C)=CC(C(=O)O1)[C@]34O)O2 (stereo partly drawn) [Example 26]
Kill rate in % after 2 days (Lucilia cuprina larvae; [3]): 100%

CC[C@H](C)[C@H]1OC2(C=C[C@@H]1C)C[C@@H]1C[C@@H](C/C=C(\C)[C@@H](OC3CC(OC)C(OC(=O)C(C)C#N)C(C)O3)[C@@H](C)/C=C/C=C3\CO[C@@H]4[C@H](O)C(C)=CC(C(=O)O1)[C@]34O)O2 (stereo partly drawn) [Example 72]
Kill rate in % after 5 days [1]: 100% | Kill rate in % after 7 days [2]: 100%

CN(C)C1(C)CC1 [Example 74]
Kill rate in % after 5 days [1]: 100% | Kill rate in % after 7 days [2]: 100%

CC[C@H](C)[C@H]1OC2(C=C[C@@H]1C)C[C@@H]1C[C@@H](C/C=C(\C)[C@@H](OC3CC(OC)C(OC(=O)CN4CCOCC4=O)C(C)O3)[C@@H](C)/C=C/C=C3\CO[C@@H]4[C@H](O)C(C)=CC(C(=O)O1)[C@]34O)O2 (stereo partly drawn) [Example 75]
Kill rate in % after 5 days [1]: 100% | Kill rate in % after 7 days [2]: 100%

CC[C@H](C)[C@H]1OC2(C=C[C@@H]1C)C[C@@H]1C[C@@H](C/C=C(\C)[C@@H](OC3CC(OC)C(OC(=O)CN4CCN(C)CC4)C(C)O3)[C@@H](C)/C=C/C=C3\CO[C@@H]4[C@H](O)C(C)=CC(C(=O)O1)[C@]34O)O2 (stereo partly drawn) [Example 76]
Kill rate in % after 5 days [1]: 100% | Kill rate in % after 7 days [2]: 100%

CC[C@H](C)[C@H]1OC2(C=C[C@@H]1C)C[C@@H]1C[C@@H](C/C=C(\C)[C@@H](OC3CC(OC)C(OC(=O)CN4CCN(Cc5ccccc5)CC4)C(C)O3)[C@@H](C)/C=C/C=C3\CO[C@@H]4[C@H](O)C(C)=CC(C(=O)O1)[C@]34O)O2 (stereo partly drawn) [Example 78]
Kill rate in % after 5 days [1]: 100% | Kill rate in % after 7 days [2]: 100%

CC[C@H](C)[C@H]1OC2(C=C[C@@H]1C)C[C@@H]1C[C@@H](C/C=C(\C)[C@@H](OC3CC(OC)C(OC(=O)CN4CCSCC4)C(C)O3)[C@@H](C)/C=C/C=C3\CO[C@@H]4[C@H](O)C(C)=CC(C(=O)O1)[C@]34O)O2 (stereo partly drawn) [Example 80]
Kill rate in % after 5 days [1]: 100% | Kill rate in % after 7 days [2]: 100%

CCC(C)C1OC2(C=CC1C)CC1CC(CC=C(C)C(OC3CC(OC)C(OC(=O)C(C)N(C)C)C(C)O3)C(C)C=CC=C3COC4C(O)C(C)=CC(C(=O)O1)C34O)O2 (stereo not drawn) [Example 81]
Kill rate in % after 5 days [1]: 100% | Kill rate in % after 7 days [2]: 100%

CC[C@H](C)[C@H]1OC2(C=C[C@@H]1C)C[C@@H]1C[C@@H](C/C=C(\C)[C@@H](OC3CC(OC)C(OC(=O)C(C)CN(C)C)C(C)O3)[C@@H](C)/C=C/C=C3\CO[C@@H]4[C@H](O)C(C)=CC(C(=O)O1)[C@]34O)O2 (stereo partly drawn) [Example 82]
Kill rate in % after 5 days [1]: 100% | Kill rate in % after 7 days [2]: 100%

CC[C@H](C)[C@H]1OC2(C=C[C@@H]1C)C[C@@H]1C[C@@H](C/C=C(\C)[C@@H](OC3CC(OC)C(OC(=O)CCN4CCOCC4)C(C)O3)[C@@H](C)/C=C/C=C3\CO[C@@H]4[C@H](O)C(C)=CC(C(=O)O1)[C@]34O)O2 (stereo partly drawn) [Example 83]
Kill rate in % after 5 days [1]: 100% | Kill rate in % after 7 days [2]: 100%

CC[C@H](C)[C@H]1OC2(C=C[C@@H]1C)C[C@@H]1C[C@@H](C/C=C(\C)[C@@H](OC3CC(OC)C(OC(=O)C4CCCN(C)C4)C(C)O3)[C@@H](C)/C=C/C=C3\CO[C@@H]4[C@H](O)C(C)=CC(C(=O)O1)[C@]34O)O2 (stereo partly drawn) [Example 84]
Kill rate in % after 5 days [1]: 100% | Kill rate in % after 7 days [2]: 100%

CC[C@H](C)[C@H]1OC2(C=C[C@@H]1C)C[C@@H]1C[C@@H](C/C=C(\C)[C@@H](OC3CC(OC)C(OC(=O)CC4C(=O)NCCN4C)C(C)O3)[C@@H](C)/C=C/C=C3\CO[C@@H]4[C@H](O)C(C)=CC(C(=O)O1)[C@]34O)O2 (stereo partly drawn) [Example 85]
Kill rate in % after 5 days [1]: 100% | Kill rate in % after 7 days [2]: 83%

CC[C@H](C)[C@H]1OC2(C=C[C@@H]1C)C[C@@H]1C[C@@H](C/C=C(\C)[C@@H](OC3CC(OC)C(OC(=O)CCN4CCCCC4)C(C)O3)[C@@H](C)/C=C/C=C3\CO[C@@H]4[C@H](O)C(C)=CC(C(=O)O1)[C@]34O)O2 (stereo partly drawn) [Example 87]
Kill rate in % after 5 days [1]: 100% | Kill rate in % after 7 days [2]: 100%

CC[C@H](C)[C@H]1OC2(C=C[C@@H]1C)C[C@@H]1C[C@@H](C/C=C(\C)[C@@H](OC3CC(OC)C(OC(=O)CCN4CCN(C)CC4)C(C)O3)[C@@H](C)/C=C/C=C3\CO[C@@H]4[C@H](O)C(C)=CC(C(=O)O1)[C@]34O)O2 (stereo partly drawn) [Example 88]
Kill rate in % after 5 days [1]: 100% | Kill rate in % after 7 days [2]: 100%

CC[C@H](C)[C@H]1OC2(CC[C@@H]1C)C[C@@H]1C[C@@H](C/C=C(\C)[C@@H](OC3CC(OC)C(OC(=O)CN)C(C)O3)[C@@H](C)/C=C/C=C3\CO[C@@H]4[C@H](O)C(C)=CC(C(=O)O1)[C@]34O)O2 (stereo partly drawn) [Example 103]
Kill rate in % after 5 days [1]: 100% | Kill rate in % after 7 days [2]: 100%

CC[C@H](C)[C@H]1OC2(C=C[C@@H]1C)C[C@@H]1C[C@@H](C/C=C(\C)[C@@H](OC3CC(OC)C(OC(=O)C(C)N4CCNCC4)C(C)O3)[C@@H](C)/C=C/C=C3\CO[C@@H]4[C@H](O)C(C)=CC(C(=O)O1)[C@]34O)O2 (stereo partly drawn) [Example 105]
Kill rate in % after 5 days [1]: 100% | Kill rate in % after 7 days [2]: 100%

CC[C@H](C)[C@H]1OC2(C=C[C@@H]1C)C[C@@H]1C[C@@H](C/C=C(\C)[C@@H](OC3CC(OC)C(OC(=O)C(C)N4CCOCC4)C(C)O3)[C@@H](C)/C=C/C=C3\CO[C@@H]4[C@H](O)C(C)=CC(C(=O)O1)[C@]34O)O2.O=C(O)c1ccccc1 (stereo partly drawn) [Example 106, 4′-O-(2-Morpholin-4-ylpropanoyl)-avermectin B1 monosaccharide benzoate]
Kill rate in % after 5 days [1]: 100% | Kill rate in % after 7 days [2]: 100%

CC[C@H](C)[C@H]1OC2(C=C[C@@H]1C)C[C@@H]1C[C@@H](C/C=C(\C)[C@@H](OC3CC(OC)C(OC(=O)CN4CCNCC4)C(C)O3)[C@@H](C)/C=C/C=C3\CO[C@@H]4[C@H](O)C(C)=CC(C(=O)O1)[C@]34O)O2.O=C(O)c1ccccc1.O=C(O)c1ccccc1 (stereo partly drawn) [Example 107, 4′-O-(piperazin-1-ylacetyl)-avermectin B1 monosaccharide dibenzoate]
Kill rate in % after 5 days [1]: 100% | Kill rate in % after 7 days [2]: 100%
